Measurements as given in patent US20250367163A1, “PHARMACEUTICAL COMPOSITION FOR PREVENTING OR TREATING DEGENERATIVE EYE DISEASES” (GLACEUM, INC., priority 2021, published 2025).

Legend:
[1] = test system: retinal lesion (wet-AMD) induced by laser photocoagulation; test: Lesion volume in laser-induced CNV wet-AMD mouse model (FITC-dextran, Z-stack 3D imaging); assay type: in vivo; settings: for efficacy on lesion compared with positive control anti-VEGF agent (FIG. 1) / lesion formation / lesion volume (FIG. 1): oral, from 6 days before and for 7 days after inducing wet-AMD; for efficacy on lesion compared with positive control anti-VEGF agent (FIG. 1): Eylea injected into the eye as positive control; for lesion formation / lesion volume (FIG. 1): male C57BL/6 mice
Procedure: Male C57BL/6 mice were anesthetized with zoletil and rompun, and a retinal lesion (wet-AMD) was induced by performing three laser photocoagulations at the 2 o'clock, 6 o'clock, and 10 o'clock positions at on the retina of the mouse eye under a slit-lamp microscope. Each of Compound 1-2 and Compound 1-18 was administered orally starting from 6 days before inducing wet-AMD, and was administered orally for 7 days after inducing the disease. Eylea (Bayer, Germany), used as a positive control, was administered by direct injection into the eye immediately after induction of the disease model.
After weighing each mouse, FITC-dextran (SIGMA, #46944) diluted in saline at a concentration of 5 mg/kg was injected into the tail veins of the mice to which each of Compound 1-2 and Compound 1-18 has been administered for 7 days after inducing the wet-AMD model. 3D images of the lesions were obtained using the Z-stack imaging technique, and the volumes of the lesions on the images were quantitatively measured.
(§1) Changes after administering Compound 1-2 for 7 days after induction of the disease without administration before induction of the disease to the wet-AMD mouse model induced in the same manner as in Experimental Example 1 were analyzed. In the same manner as Experimental Example 1, the image of the lesion was obtained and the volume of the lesion was quantified.
as §1, with “co-administering” for “administering”, “1-2 and the anti-VEGF agent (Eylea)” for “1-2”
as §1, with “1-2 at concentrations of 25, 50 and 100 mg/kg” for “1-2”, “administration of Compound 1-2” for “administration”

[2] = test system: mitochondrial reactive oxygen species in RPE cells; test: Mitochondrial reactive oxygen species (MitoSOX) in RPE cells from wet-AMD (CNV) animal model; assay type: in vivo, mouse; settings: for mitochondrial reactive oxygen species in RPE cells (FIG. 2) / efficacy on mitochondrial reactive oxygen species compared with positive control anti-VEGF agent (FIG. 2): oral, from 6 days before and for 7 days after inducing wet-AMD; for efficacy on mitochondrial reactive oxygen species compared with positive control anti-VEGF agent (FIG. 2): Eylea as positive control
Source text: (§2) RPE cells were isolated from the same model as in Experimental […] changes in mitochondrial reactive oxygen species in the RPE cells were examined through fluorescence microscopy. Specifically, immediately after enucleation of the mouse eye, mitochondria and nuclei were stained using the MitoSOX™ (Invitrogen, #M36008) kit and imaged with a fluorescence microscope at a fluorescence wavelength of 510/580 nm, and changes in reactive oxygen species in the mitochondria were measured.
RPE cells were isolated from the same model as in Experimental Example 3 and stained with MitoSOX, and changes in mitochondrial reactive oxygen species in the RPE cells were examined through fluorescence microscopy. Measurement was performed in the same manner as in Experimental Example 2.
RPE cells were isolated from the same model as in Experimental Example 5 and stained with MitoSOX, and changes in mitochondrial reactive oxygen species in the RPE cells were examined through fluorescence microscopy. Measurement was performed in the same manner as in Experimental Example 2.
RPE cells were isolated from the same model as in Experimental Example 7 and stained with MitoSOX, and changes in mitochondrial reactive oxygen species in the RPE cells were examined through fluorescence microscopy. Measurement was performed in the same manner as in Experimental Example 2.

[3] = test system: lesion in the eyeball, Alu-RNA dry-AMD model; test: Fundus photography of eyeball lesion in Alu-RNA animal model (dry-AMD); assay type: in vivo, mouse; settings: oral, from 6 days before and for 7 days after induction of dry-AMD (1.2 μg Alu-RNA subretinal)
Procedure: (§3) Male C57BL/6 mice were anesthetized, and a lesion was induced by making a hole in the corneal limbus of the mouse eye and injecting 1.2 μg of Alu-RNA into the subretinal space by a Hamilton syringe. Each of Compound 1-2 and Compound 1-18 was administered orally starting from 6 days before induction of the dry-AMD model, and was administered orally for 7 days after induction of the disease. To evaluate the dry-AMD preventive and therapeutic effects of each of Compound 1-2 and Compound 1-18, the morphology of the lesion was evaluated by fundus photography using TOPCON #TRC-50DX.

RPE cytoskeleton = test: RPE cell structure (ZO-1 staining) in Alu-RNA animal model (dry-AMD); assay type: in vivo, mouse; settings: oral, from 6 days before and for 7 days after induction of dry-AMD
Procedure: as §3
RPE cells were isolated from the same model as in Experimental Example 9 and stained for ZO-1, and changes in the structure of the RPE cells were examined under a fluorescence microscope (Olympus SZ51, Tokyo, Japan). Specifically, immediately after enucleation of the mouse eye, the RPE cytoskeleton was stained for zonula occludens-1 (ZO-1) and imaged with a fluorescence microscope through the Z-stack imaging technique, and changes in the RPE cytoskeleton were imaged.

[4] = test system: mitochondrial reactive oxygen species in RPE cells; test: Mitochondrial reactive oxygen species (MitoSOX) in RPE cells from Alu-RNA animal model (dry-AMD); assay type: in vivo, mouse; settings: oral, from 6 days before and for 7 days after induction of dry-AMD
Source text: as §2, §3
RPE cells were isolated from the same model as in Experimental Example 9 and stained with MitoSOX, and changes in mitochondrial reactive oxygen species in the RPE cells were examined through fluorescence microscopy. Measurement was performed in the same manner as in Experimental Example 2.

[5] = test system: inflammation-related mRNA in RPE cells; test: Inflammatory factor mRNA (real-time PCR) in RPE cells from Alu-RNA animal model (dry-AMD); assay type: in vivo, mouse; settings: oral, from 6 days before and for 7 days after induction of dry-AMD
Procedure: as §3
RPE cells were isolated from the same model as in Experimental Example 9, and the relative expression level of inflammation-related mRNA was analyzed using real-time PCR. […] 100 pmol of oligo Dt17 primer was added to 1 μg of total RNA which was then incubated at 74° C. for 10 minutes, and then 30 U of RNAsin (RNase inhibitor), 10 U of AMV-RT (avian myeloblastosis virus-reverse transcriptase), and AMV-RT buffer (Promega, Israel) were added thereto and reacted at 42° C. for 2 hours and at 52° C. for 1 hour, thereby synthesizing cDNA from the RNA extracted from the […]. cDNA was amplified using the SYBR Premix Ex Taq kit (Takara Bio, Inc.) and the StepOnePlus Real-time PCR system (Applied Biosystems), and then mRNA expression was measured.

[6] = 25, 50 and 100 mg/kg for 7 days after induction of the disease
[7] = administered for 7 days after induction of the disease, none before induction

SMILES	efficacy on lesion compared with positive control anti-VEGF agent (FIG. 1) [1]	lesion formation / lesion volume (FIG. 1) [1]	mitochondrial reactive oxygen species in RPE cells (FIG. 2) [2]	efficacy on mitochondrial reactive oxygen species compared with positive control anti-VEGF agent (FIG. 2) [2]	lesion in the eyeball by fundus photography (FIG. 9) [3]	RPE cytoskeleton, ZO-1 staining (FIG. 10) (RPE cytoskeleton)	mitochondrial reactive oxygen species in RPE cells (FIG. 11) [4]	lesion volume depending on concentration (FIG. 7) [1, 6]	efficacy on lesion compared with positive control anti-VEGF agent (FIG. 3) [1, 7]	lesion formation / lesion volume (FIG. 3) [1, 7]	efficacy in reducing mitochondrial reactive oxygen species at 100 mg/kg (FIG. 8) ([2]; 100 mg/kg versus 25 and 50 mg/kg, 7 days after induction of the disease)	mitochondrial reactive oxygen species in RPE cells depending on concentration (FIG. 8) [2, 6]	efficacy on mitochondrial reactive oxygen species compared with positive control anti-VEGF agent (FIG. 4) [2, 7]	mitochondrial reactive oxygen species in RPE cells (FIG. 4) [2, 7]	inflammatory factors in RPE cells, relative mRNA expression (FIG. 12) [5]
CCCOc1ccc([C@@H]2COc3c(ccc4c3CCC(C)(C)O4)C2)c(O)c1 [Compound 1-18]	efficacy equivalent to that of the positive control anti-VEGF agent	inhibited lesion formation	reduced mitochondrial reactive oxygen species	efficacy equivalent to that of the positive control anti-VEGF agent	reduced the lesion in the eyeball	restored the damaged RPE cytoskeleton	reduced mitochondrial reactive oxygen species								
CCOc1ccc(C2COc3c(ccc4c3CCC(C)(C)O4)C2)c(O)c1 (stereo not shown) [Compound 1-2]	efficacy equivalent to that of the positive control anti-VEGF agent	inhibited lesion formation	reduced mitochondrial reactive oxygen species	efficacy equivalent to that of the positive control anti-VEGF agent	reduced the lesion in the eyeball	restored the damaged RPE cytoskeleton	reduced mitochondrial reactive oxygen species	reduced in a manner dependent on the concentration	efficacy equivalent to that of the positive control anti-VEGF agent	suppressed formation of the lesion	highest efficacy	reduced mitochondrial reactive oxygen species in a concentration-dependent manner	efficacy equivalent to that of the positive control anti-VEGF agent	reduced mitochondrial reactive oxygen species	effectively reduced
